# Source: patent US20110190365A1, “Insecticidal 4-phenyl-1H-pyrazoles” (Bayer Crop Science AG, priority 2008, published 2011)
# Assay: log P by HPLC on a reversed-phase column (C18), EEC Directive 79/831 Annex V.A8
# Format: physicochemical
# Settings: HCOOH
# Method: The stated log P values were determined in accordance with EEC Directive 79/831 Annex V.A8 by HPLC (High Performance Liquid Chromatography) using a reversed-phase column (C18).
row,Compound,log P (HCOOH)
1,Cc1cc(-n2nc(C(F)(F)F)c(-c3cc(Cl)cc(Cl)c3)c2N)ccc1C(=O)NCCC(F)=C(F)F [I-A-Q2-061],I-A-Q2-061: log P (HCOOH): 4.45
2,C=CCNC(=O)c1ccc(-n2nc(C(F)(F)F)c(-c3cc(Cl)cc(Cl)c3)c2N)cc1C [I-A-Q2-062],I-A-Q2-062: log P (HCOOH): 3.94
3,"Cc1cc(-n2nc(C(F)(F)F)c(-c3cc(Cl)cc(Cl)c3)c2[S+](C)[O-])ccc1C(=O)NCc1ccccn1 (stereo not shown) [I-A-Q2-063, 4-[4-(3,5-Dichlorophenyl)-5-methanesulphinyl-3-trifluoromethylpyrazol-1-yl]-2-methyl-N-pyridin-2-ylmethylbenzamide]",I-A-Q2-063: log P (HCOOH): 3.11
4,Cc1cc(-n2nc(C(F)(F)F)c(-c3cc(Cl)cc(Cl)c3)c2N)ccc1C(=O)NC(C)Cc1ccccn1 (stereo not shown) [I-A-Q2-065],I-A-Q2-065: log P (HCOOH): 2.72
5,CCC(NC(=O)c1ccc(-n2nc(C(F)(F)F)c(-c3cc(Cl)cc(Cl)c3)c2N)cc1)C(F)(F)F (stereo not shown) [I-A-Q2-067],I-A-Q2-067: log P (HCOOH): 4.65
6,CSc1c(-c2cc(Cl)cc(C(F)(F)F)c2)c(C(F)(F)F)nn1-c1ccc(C(=O)NC(C)C(F)(F)F)cc1 (stereo not shown) [I-A-Q2-068],I-A-Q2-068: log P (HCOOH): 5.35
7,CC(C)(CC(F)(F)F)NC(=O)c1ccc(-n2nc(C(F)(F)F)c(-c3cc(Cl)cc(Cl)c3)c2N)cc1 [I-A-Q2-069],I-A-Q2-069: log P (HCOOH): 4.83
8,CC(C)CC(NC(=O)c1ccc(-n2nc(C(F)(F)F)c(-c3cc(Cl)cc(Cl)c3)c2N)cc1)C(F)(F)F (stereo not shown) [I-A-Q2-070],I-A-Q2-070: log P (HCOOH): 5.25
9,CCCC(NC(=O)c1ccc(-n2nc(C(F)(F)F)c(-c3cc(Cl)cc(Cl)c3)c2N)cc1)C(F)(F)F (stereo not shown) [I-A-Q2-071],I-A-Q2-071: log P (HCOOH): 4.95
10,CCC(C)C(NC(=O)c1ccc(-n2nc(C(F)(F)F)c(-c3cc(Cl)cc(Cl)c3)c2N)cc1)C(F)(F)F (stereo not shown) [I-A-Q2-072],I-A-Q2-072: log P (HCOOH): 5.22
11,Nc1c(-c2cc(Cl)cc(Cl)c2)c(C(F)(F)F)nn1-c1ccc(C(=O)NCCCC(F)=C(F)F)cc1 [I-A-Q2-073],I-A-Q2-073: log P (HCOOH): 4.35
12,CNC(=O)c1ccc(-n2nc(C(C)C)c(-c3ccc(Cl)cc3)c2N)cc1 [I-A-Q2-074],I-A-Q2-074: log P (HCOOH): 2.76
13,CC(NC(=O)c1ccc(-n2nc(-c3ccccc3)c(-c3ccc(Cl)cc3)c2N)cc1)C(F)(F)F (stereo not shown) [I-A-Q2-075],I-A-Q2-075: log P (HCOOH): 3.94
14,Nc1c(-c2ccc(Cl)cc2)c(-c2ccccc2)nn1-c1ccc(C(=O)NCc2ncccn2)cc1 [I-A-Q2-076],I-A-Q2-076: log P (HCOOH): 2.89
15,CC(NC(=O)c1ccc(-n2nc(-c3ccccc3)c(-c3ccc(Cl)cc3)c2N)cc1)c1ccccc1 (stereo not shown) [I-A-Q2-077],I-A-Q2-077: log P (HCOOH): 4.17
16,CNC(=O)c1ccc(-n2nc(-c3ccccc3)c(-c3ccc(Cl)cc3)c2N)cc1 [I-A-Q2-078],I-A-Q2-078: log P (HCOOH): 2.94
17,CC(NC(=O)c1ccc(-n2nc(C(F)(F)F)c(-c3ccccc3Cl)c2N)cc1)C(F)(F)F (stereo not shown) [I-A-Q2-079],I-A-Q2-079: log P (HCOOH): 3.37
18,Nc1c(-c2ccccc2Cl)c(C(F)(F)F)nn1-c1ccc(C(=O)NCc2ncccn2)cc1 [I-A-Q2-080],I-A-Q2-080: log P (HCOOH): 2.38
19,CC(NC(=O)c1ccc(-n2nc(C(F)(F)F)c(-c3ccccc3Cl)c2N)cc1)c1ccccc1 (stereo not shown) [I-A-Q2-081],I-A-Q2-081: log P (HCOOH): 3.58
20,CNC(=O)c1ccc(-n2nc(C(F)(F)F)c(-c3ccccc3Cl)c2N)cc1 [I-A-Q2-082],I-A-Q2-082: log P (HCOOH): 2.46
21,CC(NC(=O)c1ccc(-n2nc(C(F)(F)F)c(-c3cccc(Cl)c3)c2N)cc1)C(F)(F)F (stereo not shown) [I-A-Q2-083],I-A-Q2-083: log P (HCOOH): 3.68
22,CC(NC(=O)c1ccc(-n2nc(C(F)(F)F)c(-c3cc(F)cc(Cl)c3)c2N)cc1)C(F)(F)F (stereo not shown) [I-A-Q2-084],I-A-Q2-084: log P (HCOOH): 3.89
23,Nc1c(-c2cccc(Cl)c2)c(C(F)(F)F)nn1-c1ccc(C(=O)NCC(F)(F)F)cc1 [I-A-Q2-085],I-A-Q2-085: log P (HCOOH): 3.47
24,Nc1c(-c2cc(F)cc(Cl)c2)c(C(F)(F)F)nn1-c1ccc(C(=O)NCC(F)(F)F)cc1 [I-A-Q2-086],I-A-Q2-086: log P (HCOOH): 3.68
25,CC(NC(=O)c1ccc(-n2nc(C(F)(F)F)c(-c3cccc(Cl)c3)c2N)cc1)c1ccccn1 (stereo not shown) [I-A-Q2-087],I-A-Q2-087: log P (HCOOH): 2.80
26,CC(NC(=O)c1ccc(-n2nc(C(F)(F)F)c(-c3cc(F)cc(Cl)c3)c2N)cc1)c1ccccn1 (stereo not shown) [I-A-Q2-088],I-A-Q2-088: log P (HCOOH): 2.99
27,CC(NC(=O)c1ccc(-n2nc(C(F)(F)F)c(-c3cccc(Cl)c3)c2N)cc1)c1ccccc1 (stereo not shown) [I-A-Q2-089],I-A-Q2-089: log P (HCOOH): 3.89

row,Compound,log P (HCOOH)
1,CC(NC(=O)c1ccc(-n2nc(C(F)(F)F)c(-c3cc(F)cc(Cl)c3)c2N)cc1)c1ccccc1 (stereo not shown) [I-A-Q2-090],I-A-Q2-090: log P (HCOOH): 4.11
2,Nc1c(-c2cccc(Cl)c2)c(C(F)(F)F)nn1-c1ccc(C(=O)NC2CC2)cc1 [I-A-Q2-091],I-A-Q2-091: log P (HCOOH): 3.09
3,Nc1c(-c2cc(F)cc(Cl)c2)c(C(F)(F)F)nn1-c1ccc(C(=O)NC2CC2)cc1 [I-A-Q2-092],I-A-Q2-092: log P (HCOOH): 3.27
4,Nc1c(-c2cccc(Cl)c2)c(C(F)(F)F)nn1-c1ccc(C(=O)NC2CCCCC2)cc1 [I-A-Q2-093],I-A-Q2-093: log P (HCOOH): 4.00
5,CNC(=O)c1ccc(-n2nc(C(F)(F)F)c(-c3cccc(Cl)c3)c2N)cc1 [I-A-Q2-094],I-A-Q2-094: log P (HCOOH): 2.76
6,CC(NC(=O)c1ccc(-n2nc(C(F)(F)F)c(-c3cc(Cl)cc(C(F)(F)F)c3)c2N)cc1)C(F)(F)F (stereo not shown) [I-A-Q2-095],I-A-Q2-095: log P (HCOOH): 4.51
7,CC(NC(=O)c1ccc(-n2nc(C(F)(F)F)c(-c3cc(Cl)cc(Cl)c3)c2Br)cc1)C(F)(F)F (stereo not shown) [I-A-Q2-096],I-A-Q2-096: log P (HCOOH): 5.35
8,CC(C)NC(=O)c1ccc(-n2nc(C(F)(F)F)c(-c3cc(Cl)cc(Cl)c3)c2N)nc1 [I-A-Q2-097],I-A-Q2-097: log P (HCOOH): 4.64
9,Cc1nn(-c2ccc(C(=O)NC(C)C(F)(F)F)cc2)c(Br)c1-c1cccc(Cl)c1 (stereo not shown) [I-A-Q2-098],I-A-Q2-098: log P (HCOOH): 4.36
10,CC(C)(CC(F)(F)F)NC(=O)c1ccc(-n2nc(C(F)(F)F)c(-c3cc(Cl)cc(Cl)c3)c2N)nc1 [I-A-Q2-099],I-A-Q2-099: log P (HCOOH): 5.42
11,CC(NC(=O)c1ccc(-n2nc(C(F)(F)F)c(-c3cc(Cl)cc(Cl)c3)c2N)nc1)C(F)(F)F (stereo not shown) [I-A-Q2-100],I-A-Q2-100: log P (HCOOH): 4.96
12,Nc1c(-c2cc(Cl)cc(Cl)c2)c(C(F)(F)F)nn1-c1ccc(C(=O)NCC(F)(F)F)cn1 [I-A-Q2-101],I-A-Q2-101: log P (HCOOH): 4.71
13,CC(NC(=O)c1ccc(-n2nc(C(F)(F)F)c(-c3cc(Cl)cc(Cl)c3)c2N)nc1)c1ccccn1 (stereo not shown) [I-A-Q2-102],I-A-Q2-102: log P (HCOOH): 4.06
14,CC(NC(=O)c1ccc(-n2nc(C(F)(F)F)c(-c3cc(Cl)cc(Cl)c3)c2N)nc1)c1ccccc1 (stereo not shown) [I-A-Q2-103],I-A-Q2-103: log P (HCOOH): 5.19
15,C=CCNC(=O)c1ccc(-n2nc(C(F)(F)F)c(-c3cc(Cl)cc(Cl)c3)c2N)nc1 [I-A-Q2-104],I-A-Q2-104: log P (HCOOH): 4.46
16,Nc1c(-c2cc(Cl)cc(Cl)c2)c(C(F)(F)F)nn1-c1ccc(C(=O)NCc2ccccn2)cn1 [I-A-Q2-105],I-A-Q2-105: log P (HCOOH): 3.61
17,Nc1c(-c2cc(Cl)cc(Cl)c2)c(C(F)(F)F)nn1-c1ccc(C(=O)NC2CC2)cn1 [I-A-Q2-106],I-A-Q2-106: log P (HCOOH): 4.30
18,Nc1c(-c2cc(Cl)cc(Cl)c2)c(C(F)(F)F)nn1-c1ccc(C(=O)NCc2cccnc2)cn1 [I-A-Q2-107],I-A-Q2-107: log P (HCOOH): 2.95
19,Nc1c(-c2cc(Cl)cc(Cl)c2)c(C(F)(F)F)nn1-c1ccc(C(=O)NCc2ncccn2)cn1 [I-A-Q2-108],I-A-Q2-108: log P (HCOOH): 3.80
20,CNC(=O)c1ccc(-n2nc(C(F)(F)F)c(-c3cc(Cl)cc(Cl)c3)c2Br)nc1 [I-A-Q2-109],I-A-Q2-109: log P (HCOOH): 4.35
21,Cc1cc(-n2nc(C(F)(F)F)c(-c3cc(Cl)cc(Cl)c3)c2N)ccc1C(=O)N(C)Cc1ccccn1 [I-A-Q2-110],I-A-Q2-110: log P (HCOOH): 2.69
22,Cc1cc(-n2nc(C(F)(F)F)c(-c3cc(Cl)cc(Cl)c3)c2N)ccc1C(=O)N(Cc1ccccn1)C1CC1 [I-A-Q2-111],I-A-Q2-111: log P (HCOOH): 4.17
23,Cc1cc(-n2nc(C(F)(F)F)c(-c3cc(Cl)cc(Cl)c3)c2N)ccc1C(=O)NCc1ccccc1F [I-A-Q2-112],I-A-Q2-112: log P (HCOOH): 4.34
24,CC(NC(=O)c1ccc(-n2nc(C(F)(F)F)c(-c3cc(Cl)cc(Cl)c3)c2N)cc1)C(F)(F)F (stereo not shown) [I-A-Q2-133],I-A-Q2-133: log P (HCOOH): 4.44
25,Nc1c(-c2cc(Cl)cc(Cl)c2)c(C(F)(F)F)nn1-c1ccc(C(=O)NCc2ccccn2)cc1 [I-A-Q2-134],I-A-Q2-134: log P (HCOOH): 3.11
26,CC(C)NC(=O)c1ccc(-n2nc(C(F)(F)F)c(-c3cc(Cl)cc(Cl)c3)c2N)cc1 [I-A-Q2-135],I-A-Q2-135: log P (HCOOH): 4.06
27,Nc1c(-c2cc(Cl)cc(Cl)c2)c(C(F)(F)F)nn1-c1ccc(C(=O)NC2CC2)cc1 [I-A-Q2-136],I-A-Q2-136: log P (HCOOH): 3.80

# Same assay, conditions: HPLC, reversed-phase C18, mobile phase with formic acid; read-out: log P (HCOOH)
row,Compound,chromatographic logP
1,"Cc1cc(-n2nc(C(F)(F)F)c(-c3cc(Cl)cc(Cl)c3)c2[S+](C)[O-])ccc1C(=O)NCc1ccccn1 (stereo not shown) [I-A-Q2-063, 4-[4-(3,5-Dichlorophenyl)-5-methanesulphinyl-3-trifluoromethylpyrazol-1-yl]-2-methyl-N-pyridin-2-ylmethylbenzamide]",3.11
